For 1 compound, EC50 results are on record in BindingDB's records for doi:10.1021/acs.jmedchem.8b00250 (University of Liege, 2018).

pEC50: −log10 of the molar value.

The target in the experiment is Glutamate receptor 2 (Homo sapiens, UniProt P42262). In words: Positive allosteric modulation of GluA2Q flop isoform (unknown origin) expressed in HEK293 cells assessed as increase in L-glutamate induced calcium flux after 1 hr by fluo-4AM dye-based fluorescence assay.
Chain of Glutamate receptor 2 (P42262 whole entry, canonical isoform): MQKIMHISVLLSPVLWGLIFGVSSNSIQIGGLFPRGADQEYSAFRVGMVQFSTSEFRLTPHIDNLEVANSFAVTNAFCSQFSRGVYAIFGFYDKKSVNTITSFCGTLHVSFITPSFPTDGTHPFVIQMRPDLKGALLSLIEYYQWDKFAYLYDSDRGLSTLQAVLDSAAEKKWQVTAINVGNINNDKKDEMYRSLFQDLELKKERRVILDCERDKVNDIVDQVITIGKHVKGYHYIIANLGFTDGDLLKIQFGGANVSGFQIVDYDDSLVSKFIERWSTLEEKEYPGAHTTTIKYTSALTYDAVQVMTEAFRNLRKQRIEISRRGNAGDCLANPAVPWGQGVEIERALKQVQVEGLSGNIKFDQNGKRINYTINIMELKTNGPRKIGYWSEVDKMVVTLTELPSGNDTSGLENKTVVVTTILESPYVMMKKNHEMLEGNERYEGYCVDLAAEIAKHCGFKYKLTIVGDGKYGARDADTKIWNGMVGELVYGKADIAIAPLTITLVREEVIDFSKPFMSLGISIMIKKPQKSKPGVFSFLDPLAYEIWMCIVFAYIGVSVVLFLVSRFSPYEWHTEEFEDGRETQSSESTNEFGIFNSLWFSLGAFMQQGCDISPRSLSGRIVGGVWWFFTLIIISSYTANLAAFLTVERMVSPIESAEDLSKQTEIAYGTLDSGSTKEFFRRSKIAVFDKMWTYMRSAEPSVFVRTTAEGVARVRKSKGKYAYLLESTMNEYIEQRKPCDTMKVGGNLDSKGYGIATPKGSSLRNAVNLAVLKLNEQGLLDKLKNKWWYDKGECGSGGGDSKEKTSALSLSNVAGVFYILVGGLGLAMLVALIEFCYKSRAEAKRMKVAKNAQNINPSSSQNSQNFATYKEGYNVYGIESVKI

Turning to `O=S1(=O)NCN(C2CC2)c2cc(CCc3ccc4c(c3)N(C3CC3)CNS4(=O)=O)ccc21`, the pEC50 is 8.89.
